Converted amounts (≈) assume the structure as drawn.
Experiments:
Format in all cases: cell-based, human
CXF 269L = test: Monolayer assay (modified propidium iodide), CXF 269L; conditions: Colon, 4 days of treatment
Source text: (§1) Oncotest GmbH, Germany's proprietary tumor cell line panel comprises 40 cell lines. These cell lines were derived from 15 different tumor histotypes, each represented by 1 to 6 different cell lines. Cell lines were established from cancer of the bladder (3), colon (4), head and neck (1), lung (6), breast (3), pancreas (3), prostate (4), ovary (2), kidney (3), liver (1), stomach (1) and the uteri body (1), as well as from melanoma (3), sarcoma (2) and pleuramesothelioma (3). Out of these 40 cell lines, 24 cell lines were established at Oncotest, from patient-derived tumor xenografts. The other 16 cell lines were either provided by the NCI (Bethesda; MD, USA) or were purchased from ATCC (Rockville, Md., USA) or DSMZ (Braunschweig, Germany).
(§2) Cell lines were routinely passaged once or twice weekly and maintained in culture for upto 20 passages. All cells were grown at 37° C. in a humidified atmosphere with 5% CO2 in RPMI 1640 medium supplemented with 10% (v/v) fetal calf serum (FCS) and 0.1 mg/mL gentamicin (medium and all other components from PAA, Cölbe, Germany). […]
(§3) Stock solutions of the test compounds (330 μg/mL in DMSO) were prepared and stored in small aliquots (200 μL) at −20° C. […] Each concentration was evaluated in triplicate. […]
(§4) Cells were plated in 96-well flat-bottom microtiter plates at a cell density of 4,000 to 10,000 cells/well. […] To measure the viable cell number, the remaining adherent cells were killed and permeabilized by repeated freezing and thawing and PI fluorescence was measured using the Cytofluor 4000 microplate reader (excitation λ=530 nm, emission λ=620 nm), which was a measure for the number of cells which survived treatment. Pharmacological effects on cell proliferation and survival were expressed as Test/Control×100 (% T/C) values, with T and C representing the fluorescence read-outs for wells with and without test compound, respectively, i.e. T/C represents the ratio of viable cell numbers following incubation of cell line with/without test compound. […] IC-values were calculated based on the principle of linear two-point curve fit. […]

HCT 116 = test: Monolayer assay (modified propidium iodide), HCT 116; conditions: HCT 116, Colon, 4 days of treatment
Source text: as §1, with “The other 16 cell lines were either provided by the NCI (Bethesda; MD, USA) or were purchased from ATCC (Rockville, Md., USA) or DSMZ (Braunschweig, Germany).” left out
as §3
(§5) Cells were plated in 96-well flat-bottom microtiter plates at a cell density of 4,000 to 10,000 cells/well. […] To measure the viable cell number, the remaining adherent cells were killed and permeabilized by repeated freezing and thawing and PI fluorescence was measured using the Cytofluor 4000 microplate reader (excitation λ=530 nm, emission λ=620 nm), which was a measure for the number of cells which survived treatment. […] IC-values were calculated based on the principle of linear two-point curve fit. […]

LXF 1121L = test: Monolayer assay (modified propidium iodide), LXF 1121L; conditions: Lung, 4 days of treatment
Source text: as §1, with “The other 16 cell lines were either provided by the NCI (Bethesda; MD, USA) or were purchased from ATCC (Rockville, Md., USA) or DSMZ (Braunschweig, Germany).” left out
as §3, §5

LXF 529L = test: Monolayer assay (modified propidium iodide), LXF 529L; conditions: Lung, 4 days of treatment
Source text: as §1, with “The other 16 cell lines were either provided by the NCI (Bethesda; MD, USA) or were purchased from ATCC (Rockville, Md., USA) or DSMZ (Braunschweig, Germany).” left out
as §3, §5

MCF 7 = test: Monolayer assay (modified propidium iodide), MCF 7; conditions: MCF 7, Mammary, 4 days of treatment
Source text: as §1, with “The other 16 cell lines were either provided by the NCI (Bethesda; MD, USA) or were purchased from ATCC (Rockville, Md., USA) or DSMZ (Braunschweig, Germany).” left out
as §3, §5

MDA 231 = test: Monolayer assay (modified propidium iodide), MDA 231; conditions: MDA 231, Mammary, 4 days of treatment
Source text: as §1, §2, §3, §4

MEXF 276L = test: Monolayer assay (modified propidium iodide), MEXF 276L; conditions: Melanoma, 4 days of treatment
Source text: as §1, with “The other 16 cell lines were either provided by the NCI (Bethesda; MD, USA) or were purchased from ATCC (Rockville, Md., USA) or DSMZ (Braunschweig, Germany).” left out
as §3, §5

OVXF 899L = test: Monolayer assay (modified propidium iodide), OVXF 899L; conditions: Ovarian, 4 days of treatment
Source text: as §1, with “The other 16 cell lines were either provided by the NCI (Bethesda; MD, USA) or were purchased from ATCC (Rockville, Md., USA) or DSMZ (Braunschweig, Germany).” left out
as §3, §5

OVCAR3 = test: Monolayer assay (modified propidium iodide), OVCAR3; conditions: OVCAR3, Ovarian, 4 days of treatment
Source text: as §1, with “The other 16 cell lines were either provided by the NCI (Bethesda; MD, USA) or were purchased from ATCC (Rockville, Md., USA) or DSMZ (Braunschweig, Germany).” left out
as §3, §5

PAXF 546L = test: Monolayer assay (modified propidium iodide), PAXF 546L; conditions: Pancreas, 4 days of treatment
Source text: as §1, with “The other 16 cell lines were either provided by the NCI (Bethesda; MD, USA) or were purchased from ATCC (Rockville, Md., USA) or DSMZ (Braunschweig, Germany).” left out
as §3, §5

PANC 1 = test: Monolayer assay (modified propidium iodide), PANC 1; conditions: PANC 1, Pancreas, 4 days of treatment
Source text: as §1, with “The other 16 cell lines were either provided by the NCI (Bethesda; MD, USA) or were purchased from ATCC (Rockville, Md., USA) or DSMZ (Braunschweig, Germany).” left out
as §3, §5

22RV1 = test: Monolayer assay (modified propidium iodide), 22RV1; conditions: 22RV1, Prostate, 4 days of treatment
Source text: as §1, with “The other 16 cell lines were either provided by the NCI (Bethesda; MD, USA) or were purchased from ATCC (Rockville, Md., USA) or DSMZ (Braunschweig, Germany).” left out
as §3, §5

DU 145 = test: Monolayer assay (modified propidium iodide), DU 145; conditions: DU 145, Prostate, 4 days of treatment
Source text: as §1, with “The other 16 cell lines were either provided by the NCI (Bethesda; MD, USA) or were purchased from ATCC (Rockville, Md., USA) or DSMZ (Braunschweig, Germany).” left out
as §3, §5

PC3M = test: Monolayer assay (modified propidium iodide), PC3M; conditions: Prostate, 4 days of treatment
Source text: as §1, with “The other 16 cell lines were either provided by the NCI (Bethesda; MD, USA) or were purchased from ATCC (Rockville, Md., USA) or DSMZ (Braunschweig, Germany).” left out
as §3, §5

PXF 1118L = test: Monolayer assay (modified propidium iodide), PXF 1118L; conditions: Pleuramesothelioma, 4 days of treatment
Source text: as §1, with “The other 16 cell lines were either provided by the NCI (Bethesda; MD, USA) or were purchased from ATCC (Rockville, Md., USA) or DSMZ (Braunschweig, Germany).” left out
as §3, §5

PXF 1752L = test: Monolayer assay (modified propidium iodide), PXF 1752L; conditions: Pleuramesothelioma, 4 days of treatment
Source text: as §1, with “The other 16 cell lines were either provided by the NCI (Bethesda; MD, USA) or were purchased from ATCC (Rockville, Md., USA) or DSMZ (Braunschweig, Germany).” left out
as §3, §5

SACS2 = test: Monolayer assay (modified propidium iodide), SACS2; conditions: SACS2, Sarcoma, 4 days of treatment
Source text: as §1, with “The other 16 cell lines were either provided by the NCI (Bethesda; MD, USA) or were purchased from ATCC (Rockville, Md., USA) or DSMZ (Braunschweig, Germany).” left out
as §3, §5

C/C=C/C(O)C(C)/C=C/C(=N\O)C(C)C(O)C(C)C1OC(=O)/C(OC)=C/C(C)=C/C(C)C(O)C(CC)C(O)C(C)C/C(C)=C/C=C/C1OC (stereo not shown) [Example 7, (3Z,5E,13E,15E)-18-((5Z,6E,10E)-3,9-Dihydroxy-5-(hydroxymino)-4,8-dimethyldodeca-6,10-dien-2-yl)-9-ethyl-8,10-dihydroxy-3,17-dimethoxy-5,7,11,13-tetramethyl oxacyclooctadeca-3,5,13,15-tetraen-2-one]
IC70 (CXF 269L): 0.2 ng/mL (≈ 0.29 nM) | IC50 (CXF 269L; Homo sapiens, 96 h): < 0.1 ng/mL | IC70 (HCT 116): 5.0 ng/mL (≈ 7.25 nM) | IC50 (HCT 116; Homo sapiens, 96 h): 3 ng/mL (≈ 4.35 nM) | IC50 (LXF 1121L; Homo sapiens, 96 h): 1 ng/mL (≈ 1.45 nM) | IC70 (LXF 1121L): 5.0 ng/mL (≈ 7.25 nM) | IC50 (LXF 529L; Homo sapiens, 96 h): 1 ng/mL (≈ 1.45 nM) | IC70 (LXF 529L): 7.0 ng/mL (≈ 10.1 nM) | IC50 (MCF 7; Homo sapiens, MCF7, 96 h): 1 ng/mL (≈ 1.45 nM) | IC70 (MCF 7): 4.0 ng/mL (≈ 5.8 nM) | IC50 (MDA 231; Homo sapiens, MDA-MB-231, 96 h): < 0.1 ng/mL | IC70 (MDA 231): <0.1 ng/mL | IC50 (MEXF 276L; Homo sapiens, MEXF276L, 96 h): 1 ng/mL (≈ 1.45 nM) | IC70 (MEXF 276L): 251.0 ng/mL (≈ 364 nM) | IC50 (OVXF 899L; Homo sapiens, 96 h): 8 ng/mL (≈ 11.6 nM) | IC70 (OVXF 899L): 31.0 ng/mL (≈ 44.9 nM) | IC50 (OVCAR3; Homo sapiens, OVCAR-3, 96 h): 0.4 ng/mL (≈ 0.58 nM) | IC70 (OVCAR3): >1000 ng/mL | IC50 (PAXF 546L; Homo sapiens, 96 h): 0.5 ng/mL (≈ 0.725 nM) | IC70 (PAXF 546L): >1000 ng/mL | IC50 (PANC 1; Homo sapiens, 96 h): 0.6 ng/mL (≈ 0.87 nM) | IC70 (PANC 1): 17.0 ng/mL (≈ 24.6 nM) | IC70 (22RV1): 9.0 ng/mL (≈ 13 nM) | IC50 (22RV1; Homo sapiens, 96 h): 4 ng/mL (≈ 5.8 nM) | IC70 (DU 145): 0.6 ng/mL (≈ 0.87 nM) | IC50 (DU 145; Homo sapiens, 96 h): < 0.1 ng/mL | IC50 (PC3M; Homo sapiens, PC-3M, 96 h): 0.4 ng/mL (≈ 0.58 nM) | IC70 (PC3M): 3.0 ng/mL (≈ 4.35 nM) | IC50 (PXF 1118L; Homo sapiens, 96 h): 0.432 µg/mL (≈ 626 nM) | IC70 (PXF 1118L): >1000 ng/mL | IC50 (PXF 1752L; Homo sapiens, 96 h): 3 ng/mL (≈ 4.35 nM) | IC70 (PXF 1752L): 22.0 ng/mL (≈ 31.9 nM) | IC50 (SACS2; Homo sapiens, 96 h): 5 ng/mL (≈ 7.25 nM) | IC70 (SACS2): >1000 ng/mL

Source: patent publication US8637683B2, “Macrocyclic lactone derivatives for the treatment of cancer” (Piramal Enterprises Limited, priority 2009, dated 2014)
